The text below walks through data of ChEMBL document CHEMBL1201862, “PubChem BioAssay data set” (2004).

In assay [1] the target is T1, Sentrin-specific protease 6 (Homo sapiens, UniProt Q9GZR1).
T1 sequence (Q9GZR1 whole entry): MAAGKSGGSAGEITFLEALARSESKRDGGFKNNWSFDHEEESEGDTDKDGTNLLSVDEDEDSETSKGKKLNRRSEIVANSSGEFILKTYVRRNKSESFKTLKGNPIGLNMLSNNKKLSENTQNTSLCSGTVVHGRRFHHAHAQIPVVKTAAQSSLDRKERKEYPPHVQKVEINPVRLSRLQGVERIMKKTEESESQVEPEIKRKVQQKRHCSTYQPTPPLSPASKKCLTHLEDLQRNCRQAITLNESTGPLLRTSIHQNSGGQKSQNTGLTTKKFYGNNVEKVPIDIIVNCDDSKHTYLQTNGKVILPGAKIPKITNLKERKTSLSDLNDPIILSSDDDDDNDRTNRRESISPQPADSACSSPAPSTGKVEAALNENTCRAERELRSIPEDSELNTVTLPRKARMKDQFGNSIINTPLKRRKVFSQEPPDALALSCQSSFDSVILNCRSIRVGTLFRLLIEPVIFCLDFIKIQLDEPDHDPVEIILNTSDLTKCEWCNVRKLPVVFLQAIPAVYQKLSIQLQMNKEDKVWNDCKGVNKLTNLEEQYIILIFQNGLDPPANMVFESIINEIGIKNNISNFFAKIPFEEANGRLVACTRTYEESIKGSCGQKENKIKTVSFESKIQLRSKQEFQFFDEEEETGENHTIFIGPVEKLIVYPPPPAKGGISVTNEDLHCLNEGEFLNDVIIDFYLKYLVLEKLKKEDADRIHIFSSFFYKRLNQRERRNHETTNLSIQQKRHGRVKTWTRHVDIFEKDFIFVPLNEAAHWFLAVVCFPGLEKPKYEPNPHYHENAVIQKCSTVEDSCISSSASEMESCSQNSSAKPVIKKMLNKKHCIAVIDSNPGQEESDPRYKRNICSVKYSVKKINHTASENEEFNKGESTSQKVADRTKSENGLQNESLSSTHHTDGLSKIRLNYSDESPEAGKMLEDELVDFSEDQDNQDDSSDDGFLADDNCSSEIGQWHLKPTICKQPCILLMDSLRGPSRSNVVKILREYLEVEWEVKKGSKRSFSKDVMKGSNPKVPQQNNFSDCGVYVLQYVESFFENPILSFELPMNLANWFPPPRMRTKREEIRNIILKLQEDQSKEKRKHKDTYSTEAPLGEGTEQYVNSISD
Briefly: SAR Analysis of small molecule inhibitors of Sentrin-specific protease 6 (SENP6) using a Luminescent assay. [Related pubchem assays (depositor defined):AID2582, AID2599]. In kind it is functional.

The target of assay [2] is T2, Sentrin-specific protease 7 (Homo sapiens, UniProt Q9BQF6).
T2 sequence (Q9BQF6 whole entry): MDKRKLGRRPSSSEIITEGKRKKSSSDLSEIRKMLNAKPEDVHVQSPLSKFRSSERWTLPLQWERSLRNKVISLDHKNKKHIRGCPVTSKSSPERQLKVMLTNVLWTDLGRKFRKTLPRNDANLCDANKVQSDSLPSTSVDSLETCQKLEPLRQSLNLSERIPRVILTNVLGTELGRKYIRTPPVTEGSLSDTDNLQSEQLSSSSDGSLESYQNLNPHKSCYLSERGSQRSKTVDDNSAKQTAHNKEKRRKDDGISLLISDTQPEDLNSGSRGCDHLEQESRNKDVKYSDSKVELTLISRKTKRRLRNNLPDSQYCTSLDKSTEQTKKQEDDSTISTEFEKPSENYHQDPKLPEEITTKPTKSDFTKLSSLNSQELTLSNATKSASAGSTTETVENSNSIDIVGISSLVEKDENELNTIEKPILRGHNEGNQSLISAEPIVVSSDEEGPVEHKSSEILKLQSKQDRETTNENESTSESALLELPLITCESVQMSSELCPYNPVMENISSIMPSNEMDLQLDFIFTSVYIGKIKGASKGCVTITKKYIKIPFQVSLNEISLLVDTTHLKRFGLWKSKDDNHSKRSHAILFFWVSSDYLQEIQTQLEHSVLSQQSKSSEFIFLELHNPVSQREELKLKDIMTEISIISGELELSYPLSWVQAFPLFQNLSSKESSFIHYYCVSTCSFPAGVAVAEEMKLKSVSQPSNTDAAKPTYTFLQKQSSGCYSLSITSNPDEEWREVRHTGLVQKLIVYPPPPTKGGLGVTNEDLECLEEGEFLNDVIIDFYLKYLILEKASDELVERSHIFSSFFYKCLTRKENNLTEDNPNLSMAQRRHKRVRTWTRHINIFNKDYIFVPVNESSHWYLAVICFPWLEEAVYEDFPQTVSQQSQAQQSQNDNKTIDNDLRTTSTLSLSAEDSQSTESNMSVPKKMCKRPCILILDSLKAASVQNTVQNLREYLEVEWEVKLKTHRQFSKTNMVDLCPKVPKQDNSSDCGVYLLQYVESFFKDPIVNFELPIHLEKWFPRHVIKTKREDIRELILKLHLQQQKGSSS
The assay is described as follows: inhibition of human SENP7 cleavage activity – biochemical, luminescence, SAR follow-up (AID 504497). Format: functional.

Assay [3] addresses T3, Sentrin-specific protease 8 (Homo sapiens, UniProt Q96LD8).
T3 sequence (Q96LD8 whole entry): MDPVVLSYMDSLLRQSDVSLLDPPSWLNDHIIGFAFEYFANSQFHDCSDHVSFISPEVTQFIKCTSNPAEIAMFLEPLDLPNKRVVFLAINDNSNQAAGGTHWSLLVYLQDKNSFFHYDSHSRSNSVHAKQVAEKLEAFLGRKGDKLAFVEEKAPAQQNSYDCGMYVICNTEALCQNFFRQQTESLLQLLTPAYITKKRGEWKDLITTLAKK
Briefly: inhibition of human SENP8 cleavage activity – biochemical, luminescence, SAR follow-up (AID 504501). In kind it is functional.

Assay [4] concerns the target T4, Caspase-3 (Homo sapiens, UniProt P42574).
T4 sequence (P42574 whole entry): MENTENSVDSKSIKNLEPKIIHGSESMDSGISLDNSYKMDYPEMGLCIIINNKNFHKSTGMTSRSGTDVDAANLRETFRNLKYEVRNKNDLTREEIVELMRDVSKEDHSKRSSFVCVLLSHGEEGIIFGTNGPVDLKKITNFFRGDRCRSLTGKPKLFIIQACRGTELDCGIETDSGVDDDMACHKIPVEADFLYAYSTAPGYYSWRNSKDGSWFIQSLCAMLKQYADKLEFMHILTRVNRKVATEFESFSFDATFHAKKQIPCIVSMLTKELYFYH
Briefly: SAR Analysis of small molecule inhibitors of Sentrin-specific proteases (SENPs) using a Caspase-3 Selectivity assay. [Related pubchem assays (depositor defined):AID2540, AID2599, AID434973, AID489001]. In kind it is functional.

Assay [5] deals with T5, Endoribonuclease toxin MazF (Escherichia coli K-12, UniProt P0AE70).
T5 sequence (P0AE70 whole entry): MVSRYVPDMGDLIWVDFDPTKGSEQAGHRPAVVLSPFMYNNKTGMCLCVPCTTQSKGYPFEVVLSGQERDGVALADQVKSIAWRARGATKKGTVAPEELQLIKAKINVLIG
The assay is described as follows: activation of MazEF endoribonuclease cleavage – biochemical, fluorescence, single-stranded RNA substrate, uHTS hits, dose response (AID 588481). Format: functional.

The target in assay [6] is T6, Zinc finger protein mex-5 (Caenorhabditis elegans, UniProt Q9XUB2).
T6 sequence (Q9XUB2 whole entry): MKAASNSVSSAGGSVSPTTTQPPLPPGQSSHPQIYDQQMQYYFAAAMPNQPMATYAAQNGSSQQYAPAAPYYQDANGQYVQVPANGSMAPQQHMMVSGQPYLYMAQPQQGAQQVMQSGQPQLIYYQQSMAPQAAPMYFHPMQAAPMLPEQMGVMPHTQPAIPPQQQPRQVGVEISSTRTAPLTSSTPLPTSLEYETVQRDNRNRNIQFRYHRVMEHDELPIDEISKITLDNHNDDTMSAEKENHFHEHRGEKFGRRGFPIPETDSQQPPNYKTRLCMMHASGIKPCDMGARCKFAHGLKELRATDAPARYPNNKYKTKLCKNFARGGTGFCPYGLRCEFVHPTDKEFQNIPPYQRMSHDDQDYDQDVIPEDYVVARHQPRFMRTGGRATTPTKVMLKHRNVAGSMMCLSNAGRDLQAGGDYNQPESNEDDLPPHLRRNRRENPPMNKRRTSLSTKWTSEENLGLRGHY
The assay is described as follows: potency of MEX-5 RNA-binding blockers – biochemical, C. elegans, fluorescence polarization, dose response (AID 1960). A general note: Fluorescence polarisation rises when a labelled molecule tumbles more slowly, as on binding a larger partner.

Assay [7] concerns the target T7, RNA-binding protein pos-1 (Caenorhabditis elegans, UniProt G5EF15).
T7 sequence (G5EF15 whole entry): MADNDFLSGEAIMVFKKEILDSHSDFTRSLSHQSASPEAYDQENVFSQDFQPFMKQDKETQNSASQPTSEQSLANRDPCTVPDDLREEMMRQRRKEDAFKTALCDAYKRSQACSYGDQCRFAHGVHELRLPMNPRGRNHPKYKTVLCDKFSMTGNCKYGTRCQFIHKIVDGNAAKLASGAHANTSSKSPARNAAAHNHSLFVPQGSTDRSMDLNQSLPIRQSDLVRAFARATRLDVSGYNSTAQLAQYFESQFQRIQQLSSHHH
Briefly: disruptors of C. elegans POS-1 RNA interaction – biochemical, fluorescence polarization, dose response (AID 1964).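 Also: purified POS-1 fused to maltose binding protein made in E. coli; potency of compounds blocking POS-1 binding to fluorescent RNA.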

Assay [8] concerns the target T5, Endoribonuclease toxin MazF. The assay is described as follows: substrate-only fluorescence increase artefacts – biochemical, single-stranded RNase substrate, counter-screen for MazEF activator project, dose response (AID 588502). Format: functional. For orientation: A counterscreen serves to expose hits that act by an unwanted route or on another target.
The subject of assay [9] is BJ. The assay is described as follows: cells. Format: functional, cell-based. To be noted: Homo sapiens.
The test system of assay [10] is BJ. Briefly: BJ-TERT fibroblast viability loss – cell-based, RAS-independent, luminescence, dose response (AID 1933). In kind it is functional. To be noted: Homo sapiens.
The subject of assay [11] is BJ. Briefly: growth inhibition of engineered Ras-driven BJ cells – cell-based, alamar blue fluorescence, cherrypicked samples, dose response (AID 2631).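 Also: confirmatory dose-response assay in RAS-dependent BJ fibroblasts engineered with TERT, LT and ST, with cytotoxicity read by fluorescence.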 Format: functional. The settings on record: Homo sapiens. (In general: Alamar Blue is a resazurin reagent that responds to reducing activity.)
The test system of assay [12] is BJ. The assay is described as follows: BJ-TERT-LT-ST fibroblast viability loss – cell-based, RAS-independent, luminescence, dose response (AID 1935).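 Also: BJ fibroblasts immortalized with TERT plus LT and ST oncogenes.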 In kind it is functional. To be noted: Homo sapiens.
Assay [13] can be described thus: DRD fibroblast viability loss – cell-based, non-viral oncogenic, luminescence, dose response (AID 1934). Format: functional. To be noted: Homo sapiens.

The source made the active and inactive calls. Bounds are passed on as bounds.

For orientation: IC50 means the midpoint of a concentration-inhibition curve. Usually EC50 stands for the concentration that produces a half-maximal response.

As for `CN(C)c1nc(NCc2ccccc2)nc(N/N=C/c2ccc(Br)cc2)n1`, the IC50 in [1], in [2], in assay [3] and in assay [4] was > 99 µM (inactive) throughout.

Turning to `Cc1cccc(N/N=C/c2c[nH]c3ccccc23)c1`, the IC50 was 32 µM (active) in assay [1], 18 µM (active) in assay [2], 34.5 µM (active) in assay [3] and > 99 µM (inactive) in assay [4].

On to `CCCCOc1cccc(C2C(C(=O)c3ccc(C)o3)=C(O)C(=O)N2c2nnc(C)s2)c1` (stereo unspecified), for which the EC50 in assay [5] was > 99 µM (inactive); in [6], 77.4 µM (active); in assay [7] it was 102 µM (active); in assay [8] it was 20.4 µM (inactive).

With `CSc1cc(-c2ccccc2)n(Cc2ccccc2Cl)c(=O)c1C#N`, the concentration for a half-maximal effect (EC50) in [9] was 43.8 µM (active); in assay [10], 10.1 µM (inconclusive); in assay [11], 1.92 µM (active); in assay [12], 33.6 µM (inconclusive); in [13], 3.67 µM (active).

With `O=[N+]([O-])c1ccccc1CNCCc1c[nH]c2ccccc12`, the IC50 in [1], in [2], in assay [3] and in assay [4] was > 99 µM (inactive) throughout.
